# Test results from BindingDB's records for doi:10.1016/j.bioorg.2013.01.001 (University of Wisconsin-Madison, 2013).
# Molecular target: Vitamin D3 receptor (Rattus norvegicus) (UniProt P13053)
# Experiment: In vitro study, VDR binding assay were performed as previously described.
# Sequence of Vitamin D3 receptor (Rattus norvegicus) (P13053 whole entry, looked up): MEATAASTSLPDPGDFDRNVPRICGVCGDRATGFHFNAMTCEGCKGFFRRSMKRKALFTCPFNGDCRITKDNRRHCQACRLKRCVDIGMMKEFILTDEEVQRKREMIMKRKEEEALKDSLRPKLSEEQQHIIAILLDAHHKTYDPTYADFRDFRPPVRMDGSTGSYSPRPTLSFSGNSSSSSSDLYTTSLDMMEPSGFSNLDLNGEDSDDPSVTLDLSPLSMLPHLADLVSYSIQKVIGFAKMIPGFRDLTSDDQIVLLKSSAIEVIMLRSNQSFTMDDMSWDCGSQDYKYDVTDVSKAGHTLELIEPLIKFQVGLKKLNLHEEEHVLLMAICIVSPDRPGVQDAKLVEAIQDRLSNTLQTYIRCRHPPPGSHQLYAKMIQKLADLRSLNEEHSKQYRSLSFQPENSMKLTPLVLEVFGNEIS
row,Ki [pM],SMILES
1,200,"C=C1[C@H](O)CC(=C/C=C2\CCC[C@@]3(C)C2CCC3[C@H](C)CCCCO)C[C@H]1O (some centres undefined) [Vitamin D analog, 6]"
2,300,"C=C1[C@H](O)CC(=C/C=C2\CCC[C@@]3(C)C2CCC3[C@@H](C)CCCCO)C[C@H]1O (some centres undefined) [Vitamin D analog, 7]"
3,300,"C=C1[C@H](O)CC(=C/C=C2\CCC[C@@]3(C)C2CCC3[C@H](C)CCCC)C[C@H]1O (some centres undefined) [Vitamin D analog, 8]"
4,300,"C=C1[C@H](O)CC(=C/C=C2\CCC[C@@]3(C)C2CCC3[C@@H](C)CCCC)C[C@H]1O (some centres undefined) [Vitamin D analog, 9]"
